Measured values as given in patent US6624149B2, “Method for nucleic acid transfection of cells” (Genteric, Inc., priority 2000, dated 2003).
“And” between values parts separate entries of the source, which are not always exact repeats. Equal values may be shown once.

Legend:
Assay type in all cases: in vivo
[1] = tested on: mouse lung; test: Intra-tracheal transfection of mouse lung, luciferase assay; conditions: 3.6 mM zinc chloride
Description: Male BALB/c mice (specific pathogen free, Charles River Laboratories; 20-21 g) were used in the transfection experiments. Anesthesia was provided for all invasive procedures; animals were terminated by intraperitoneal administration of pentobarbital according to standard protocols. Neck dissections were performed on anesthetized mice using a one centimeter incision through the skin of the anterior neck. […] For comparison, a free nucleic acid solution (150 μl containing 512 μg of DNA) was prepared in sterile water and delivered in a similar manner. After injection, the point of incision was repaired using staples. The mice were terminated within 48 hours after treatment. […] An experiment was conducted to determine if transition metals promote in vivo transfection of the mouse lung. […] The final zinc chloride concentration of this mixture was 3.6 mM. […] For comparison, 150 μl of a DNA solution (354 μg DNA) was also administered to intratracheally to the lungs of four mice. At 48 hours post administration, the tracheal/lung block was dissected and assayed for luciferase specific activity as described above.

[2] = tested on: rat submandibular gland; test: Cationic liposome-mediated hGH gene delivery to rat submandibular gland; parameters: human growth hormone protein expression, Trial 1 to Trial 8: unit not given here; conditions: for human growth hormone protein expression, Average / human growth hormone protein expression, Trial 1 to Trial 8: one week post-administration; for human growth hormone protein expression, Trial 1 to Trial 8: individual glands, DOHBD:DOPE liposome, 175 micrograms pCMV.FOX.hGH per gland, listed as Zn
Description: In embodiments in which a liposome/transition metal/nucleic acid mixture was used, 200 μl of the liposome/transition metal/nucleic acid mixture was injected, infused, instilled or administered at the ductal orifice or directly into the duct at any point along its length. See Goldfine, Nature Biotechnology 15:1378, 1997. The liposome/transition metal/nucleic acid mixture was prepared by sequentially adding an appropriate amount of sterile water, liposome solution (3:1, N,N,N′,N′-tetramethyl-N,N′-bis(2-hydroxyethyl)-2,3-bis(9(z)-octadecenoyloxy)-1,4-butanediaminium iodide (DOHBD):DOPE), transition metal enhancer, and the plasmid DNA pCMV.FOX.hGH to a polypropylene tube.
Regardless of whether a liposome/transition metal/nucleic acid mixture or a nucleic acid/transition metal enhancer mixture was delivered, the tubing and mixture was kept in place for ten additional minutes after application of the mixture prior to removal. At 48 hours post atropine administration, the rats were anesthetized by intraperitoneal injection of pentobarbital (50 mg/kg). The right and left submandibular glands were surgically removed, and the tissues were assayed for any observable reporter gene (luciferase of hGH) expression using the methods described below.
In one embodiment, an appropriate mass of cationic lipid and the neutral lipid dioleoylphosphatidylethanolamine (DOPE) was added as solutions in chloroform to 1.9 mL sample vials to yield the desired molar ratio of cationic lipid:DOPE. The chloroform was removed via rotary evaporation at 37° C. The resulting thin lipid films were placed under vacuum overnight to insure that all traces of solvent have been removed. The lipid mixture was resuspended in 1 mL sterile water at 25° C. until the film is hydrated, and then vortex mixed to afford an emulsion. For the in vitro experiments, these emulsions were formulated as a cationic lipid concentration of 1 mM. For the in vivo experiments, the emulsions were formulated at a cationic lipid concentration of 3 mM.
To perform this study, cationic lipid/nucleic acid/zinc mixtures were prepared by mixing the appropriate amount of sterile water, cationic liposomes, zinc chloride and pCMV.FOX.hGH plasmid DNA in a polystyrene tube. Specifically, 40 microliters of a 3 mM 3:1 DOHBD:DOPE liposome mixture, 270 microliters of a 8.08 microgram/microliter pCMV.FOX.hGH plasmid DNA mixture, and an appropriate amount of a 70 mM zinc chloride mixture were added to a polystyrene tube containing a sufficient amount of water to give a final total volume of 2500 microliters. In this experiment, the final zinc chloride concentration was either 0.125 mM, 0.250 mM, or no zinc at all. The cationic lipid:DNA phosphate ratio in this study remained constant for all mixtures screened. Once prepared, 200 microliters of each mixture was instilled into the right and left submandibular glands of four male Sprague-Dawley rats. Thus, 175 micrograms of the plasmid DNA was instilled into each gland. After one week post-administration of the cationic lipid/nucleic acid/zinc mixtures, the salivary gland of the rats were extracted, mixed with a phosphate lysis buffer (10 mM, pH 8.0) and homogenized. The homogenate was then assayed for human growth hormone protein expression. […]

[3] = tested on: rat pancreas; test: Intraductal transfection of rat pancreas, luciferase assay; conditions: 64 μg pCMV.FOX.Luc-2 in 100 μL into bile duct, 48 hours, four trials; ZnCl2 absent or 1.8 mM
Description: Male Sprague-Dawley rats (weighing 260-280 g) were fasted the night prior to treatment. Care was taken to ensure that this procedure was conducted under sterile conditions. After anesthesia (see above) and laparotomy, the distal end of the bile duct (at the level of the duodenum) was ligated, the proximal end of the pancreas (at the porta hepatis level) was temporary blocked by a ligature, a PE-10 tubing was inserted through an incision of the bile duct near the duodenum. 0.1 ml of the selected nucleic acid/transition metal enhancer mixture was injected in a retrograde manner into the duct. Successful injection was confirmed by visible swelling of the gland. For administration to the liver, the proximal portion of the bile duct (prior to its entry into pancreatic tissue) was injected. After DNA delivery, a by-pass operation was done by directly introducing the bile flow to duodenum through the exterior end of the PE-10 tubing. After carefully ensuring the ligatures were secure, 1 ml of ampicillin (15 mg/ml) was injected into the peritoneal cavity and the incision was closed in one layer, combining fascia and skin with 3-0 silk suture. The closed incision was washed with dilute ethanol and the animal was monitored under a heat lamp until it was fully awake and ambulatory. The […] were terminated 48 hours after treatment. […]

[Cl-].[Cl-].[Zn+2] [ZnCl2, zinc chloride]
Improvement of transfection activity relative to the "free" DNA solution [1]: 5 fold
human growth hormone protein expression, Average ([2]; [Zn] 0.125 mM): 505.6361
human growth hormone protein expression, Average ([2]; [Zn] 0.25 mM): 464.7687
human growth hormone protein expression, Trial 1 to Trial 8 ([2]; [Zn] 0.125 mM): 452.1 and 360.8 and 261.7 and 355.7 and 517.2 and 575.6 and 943.5 and 1084
human growth hormone protein expression, Trial 1 to Trial 8 ([2]; [Zn] 0.25 mM): 857.731 and 753.3 and 272.6 and 315.3 and 604.3 and 449.9
enhancement of in vivo transfection compared to cationic liposome/nucleic acid mixture not containing zinc ([2]; rat submandibular gland): at least two
average luciferase activity [3]: 22028 relative luciferase light units per 10 mg of pancreatic tissue
